Consider 20 molecules from ChEMBL document CHEMBL1145629, “Design of (N)-methanocarba adenosine 5'-uronamides as species-independent A3 receptor-selective agonists” (Bioorg Med Chem Lett, 2008).

For orientation: pEC50 means the EC50 on a negative log10 scale, so that one unit is a factor of ten. Read a high pEC50 as a low EC50. One may read the pKi as −log10 of the Ki, conventionally taken in molar units. Usually inhibition stands for the change of the read-out against control, counted positive when it falls.

Structures are written as SMILES. pEC50, pKi: −log10 of the molar value. Bounds are passed on as bounds.

One assay concerns the target T1, Adenosine receptor A2b (Homo sapiens, UniProt P29275).
T1 sequence (P29275 whole entry): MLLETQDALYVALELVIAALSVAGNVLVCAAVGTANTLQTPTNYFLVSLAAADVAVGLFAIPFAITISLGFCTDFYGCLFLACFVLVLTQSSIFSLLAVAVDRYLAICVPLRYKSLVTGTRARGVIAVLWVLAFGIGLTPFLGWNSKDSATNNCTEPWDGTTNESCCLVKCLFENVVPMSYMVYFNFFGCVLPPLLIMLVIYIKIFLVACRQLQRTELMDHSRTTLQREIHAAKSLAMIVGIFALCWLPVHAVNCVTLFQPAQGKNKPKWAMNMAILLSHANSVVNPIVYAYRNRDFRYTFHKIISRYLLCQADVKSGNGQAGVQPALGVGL
The assay can be described thus: Activation of human adenosine A2B receptor.

For assay [1], the target named is T2, Adenosine receptor A1 (Mus musculus, UniProt Q60612).
T2 sequence (Q60612 whole entry): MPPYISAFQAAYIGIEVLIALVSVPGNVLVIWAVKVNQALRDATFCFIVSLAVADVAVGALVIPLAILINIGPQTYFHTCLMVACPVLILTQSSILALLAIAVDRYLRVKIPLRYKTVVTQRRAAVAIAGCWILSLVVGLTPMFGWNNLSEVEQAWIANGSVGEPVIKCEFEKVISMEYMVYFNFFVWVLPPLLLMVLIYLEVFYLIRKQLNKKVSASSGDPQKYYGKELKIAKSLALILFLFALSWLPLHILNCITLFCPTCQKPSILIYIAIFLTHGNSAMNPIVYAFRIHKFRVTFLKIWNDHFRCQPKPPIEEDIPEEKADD
Nature of the assay: Displacement of [125I]N6-(4-amino-3-iodobenzyl)adenosine-5'-N-methyl-uronamide from mouse recombinant adenosine A1 receptor expressed in HEK293 cells. The assay is classed as cell-based. In general terms: Loss of bound radioactivity is the signal in a displacement assay; it reports binding, not function.

Assay [2] addresses Adenosine receptor A2a (Mus musculus, UniProt Q60613). The assay can be described thus: Displacement of [3H]2-[p-(2-carboxyethyl)phenyl-ethylamino]-5'-N-ethylcarboxamidoadenosine from mouse recombinant adenosine A2A receptor expressed in HEK293 cells. The format is cell-based.
The target in assay [3] is T3, Adenosine receptor A3 (Mus musculus, UniProt Q61618).
T3 sequence (Q61618 whole entry): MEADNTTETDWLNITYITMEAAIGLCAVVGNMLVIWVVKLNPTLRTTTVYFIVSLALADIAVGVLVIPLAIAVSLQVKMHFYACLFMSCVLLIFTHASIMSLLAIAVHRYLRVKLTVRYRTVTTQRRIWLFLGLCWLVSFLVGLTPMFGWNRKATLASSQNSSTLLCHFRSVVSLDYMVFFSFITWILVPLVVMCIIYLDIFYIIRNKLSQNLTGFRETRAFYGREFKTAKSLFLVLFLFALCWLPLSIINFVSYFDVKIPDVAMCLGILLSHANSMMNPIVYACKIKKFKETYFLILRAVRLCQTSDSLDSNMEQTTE
Nature of the assay: Displacement of [125I]N6-(-amino-3-iodobenzyl)adenosine-5'-N-methyl-uronamide from mouse recombinant adenosine A3 receptor expressed in HEK293 cells. The format is cell-based.

Assay [4] has as its target T4, Adenosine receptor A2a (Homo sapiens, UniProt P29274). The assay can be described thus: Displacement of radioligand from human A2A adenosine receptor expressed in HEK293 cells at 10 uM. The format is cell-based.
Assay [5] concerns the target Adenosine receptor A2a (Mus musculus) (UniProt Q60613). Nature of the assay: Displacement of [3H]2-[p-(2-carboxyethyl)phenyl-ethylamino]-5'-N-ethylcarbox-amidoadenosine from mouse recombinant adenosine A2A receptor expressed in HEK293 at 100 uM. The assay is classed as cell-based.
A further assay is filed under the species Mus musculus. Nature of the assay: Selectivity for mouse adenosine A3 receptor over mouse adenosine A1 receptor.
Assay [6] concerns the target Adenosine receptors; A1 & A3 (Homo sapiens) (UniProt P30542+P0DMS8). Nature of the assay: Selectivity for human adenosine A3 receptor over human adenosine A1 receptor.
The target in assay [7] is T4, Adenosine receptor A2a. The assay can be described thus: Displacement of radioligand from human adenosine A2A receptor expressed in HEK293 cells. The assay is classed as cell-based.
Assay [8] concerns the target T5, Adenosine receptor A3 (Homo sapiens, UniProt P0DMS8).
T5 sequence (P0DMS8 whole entry): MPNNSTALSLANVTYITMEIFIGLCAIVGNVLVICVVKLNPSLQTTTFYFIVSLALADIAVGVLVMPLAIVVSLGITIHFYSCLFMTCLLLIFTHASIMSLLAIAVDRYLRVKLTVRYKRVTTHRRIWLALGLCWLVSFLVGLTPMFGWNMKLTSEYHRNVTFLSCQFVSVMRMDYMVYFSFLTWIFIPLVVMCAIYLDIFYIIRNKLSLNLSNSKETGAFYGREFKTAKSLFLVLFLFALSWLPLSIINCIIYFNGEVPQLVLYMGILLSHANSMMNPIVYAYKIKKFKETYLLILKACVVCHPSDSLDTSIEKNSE
The assay can be described thus: Displacement of radioligand from human adenosine A3 receptor expressed in CHO cells. The format is cell-based.

Assay [9] concerns the target T6, Adenosine receptor A1 (Homo sapiens, UniProt P30542).
T6 sequence (P30542 whole entry): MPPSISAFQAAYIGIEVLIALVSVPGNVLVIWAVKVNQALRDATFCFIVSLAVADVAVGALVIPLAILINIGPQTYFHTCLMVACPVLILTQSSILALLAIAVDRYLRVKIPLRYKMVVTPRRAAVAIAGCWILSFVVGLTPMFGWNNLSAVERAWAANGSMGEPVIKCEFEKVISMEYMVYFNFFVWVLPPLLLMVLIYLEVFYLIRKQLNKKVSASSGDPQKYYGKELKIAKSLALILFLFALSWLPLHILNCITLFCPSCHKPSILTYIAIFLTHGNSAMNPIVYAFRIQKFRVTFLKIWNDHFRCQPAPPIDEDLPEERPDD
The assay can be described thus: Displacement of radioligand from human adenosine A1 receptor expressed in CHO cells. The assay is classed as cell-based.

Chain of Adenosine receptor A2a (Mus musculus) (Q60613 whole entry): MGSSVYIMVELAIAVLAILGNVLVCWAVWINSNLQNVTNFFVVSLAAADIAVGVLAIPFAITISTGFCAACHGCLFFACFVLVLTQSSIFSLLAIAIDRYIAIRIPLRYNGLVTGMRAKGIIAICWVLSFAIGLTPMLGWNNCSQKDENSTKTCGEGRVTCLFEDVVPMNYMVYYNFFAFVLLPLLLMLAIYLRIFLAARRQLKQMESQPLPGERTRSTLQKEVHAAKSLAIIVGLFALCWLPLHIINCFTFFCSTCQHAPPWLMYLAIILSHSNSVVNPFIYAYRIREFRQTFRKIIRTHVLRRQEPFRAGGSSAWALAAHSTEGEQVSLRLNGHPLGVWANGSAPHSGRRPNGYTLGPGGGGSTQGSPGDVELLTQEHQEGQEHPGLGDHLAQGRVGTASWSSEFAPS
Chain of Adenosine receptor A2a (Mus musculus, UniProt Q60613) (Q60613 whole entry): as above
T4 sequence (P29274 whole entry): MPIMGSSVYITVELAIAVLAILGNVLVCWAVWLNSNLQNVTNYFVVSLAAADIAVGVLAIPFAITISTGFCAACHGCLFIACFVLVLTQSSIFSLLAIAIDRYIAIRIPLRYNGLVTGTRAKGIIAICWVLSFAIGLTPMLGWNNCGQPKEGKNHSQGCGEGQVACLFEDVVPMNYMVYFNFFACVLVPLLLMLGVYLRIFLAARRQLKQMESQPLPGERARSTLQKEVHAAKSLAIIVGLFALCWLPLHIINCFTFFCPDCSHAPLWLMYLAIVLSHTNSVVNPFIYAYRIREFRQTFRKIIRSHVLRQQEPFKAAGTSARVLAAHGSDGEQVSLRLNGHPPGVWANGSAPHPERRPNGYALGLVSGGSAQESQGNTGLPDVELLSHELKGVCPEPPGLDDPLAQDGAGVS

Turning to `CNC(=O)[C@@]12C[C@@H]1[C@@H](n1cnc3c(NCc4cccc(Cl)c4)nc(Cl)nc31)[C@H](O)[C@@H]2O`, the pEC50 at Adenosine receptor A2b is ≤ 5.00. The pKi on Adenosine receptor A1 [1] is 7.82; on Adenosine receptor A2a [2], 4.98; on Adenosine receptor A3 [3] it was 8.83.

For `CNC(=O)[C@@]12C[C@@H]1[C@@H](n1cnc3c(NCc4cccc(C#CCCCC(=O)NCCNC(C)=O)c4)nc(Cl)nc31)[C@H](O)[C@@H]2O`, the inhibition is 80% at Adenosine receptor A2a [4] and 68% in assay [5].

Take `CNC(=O)C12C[C@@H]1[C@@H](n1cnc3c(NCc4cccc(Br)c4)nc(Cl)nc31)[C@H](O)[C@@H]2O` (single isomer, unassigned): the Ratio Ki in the assay listed under Mus musculus was 9.8; in assay [6], 710. The pEC50 on Adenosine receptor A2b is ≤ 5.00. For the same molecule, the negative logarithm of the Ki (pKi) at Adenosine receptor A1 [1] was 8.06; at Adenosine receptor A2a [2] it was 5.19; on Adenosine receptor A3 [3] it was 9.05.

With `CNC(=O)C12C[C@@H]1[C@@H](n1cnc3c(NCc4cccc(Cl)c4)nc(SC)nc31)[C@H](O)[C@@H]2O` (single isomer, unassigned), the inhibition in assay [5] is 32%. Further, the Ratio Ki came out at 83 in the assay filed under Mus musculus and 410 in [6]. Further, the pKi at Adenosine receptor A1 [1] is 7.00; on Adenosine receptor A3 [3], 8.92; at Adenosine receptor A2a [7], 5.00.

Take `CNC(=O)C12C[C@@H]1[C@@H](n1cnc3c(NCc4cccc(C#CCO)c4)nc(Cl)nc31)[C@H](O)[C@@H]2O` (single isomer, unassigned): the values for the inhibition (at Adenosine receptor A2a [4]; in [5]) were 56% and 11%, respectively.

Turning to `CNC(=O)C12C[C@@H]1[C@@H](n1cnc3c(NCc4cc(OC)ccc4OC)nc(Cl)nc31)[C@H](O)[C@@H]2O` (single isomer, unassigned), the values for the Ratio Ki (in the assay listed under Mus musculus; in assay [6]) were 17 and 1100, respectively. For the same molecule, the negative-log EC50 (pEC50) on Adenosine receptor A2b was ≤ 5.00. Moreover, the pKi at Adenosine receptor A1 [1] was 7.54; on Adenosine receptor A2a [2], 4.35; on Adenosine receptor A3 [3], 8.76; at Adenosine receptor A2a [7] it was 5.00.

As for `CNC(=O)[C@@]12C[C@@H]1[C@@H](n1cnc3c(NOC)nc(Cl)nc31)[C@H](O)[C@@H]2O`, the pKi at Adenosine receptor A3 [8] was 6.83; on Adenosine receptor A1 [1], 5.94; on Adenosine receptor A3 [3] it was 6.06; at Adenosine receptor A1 [9], 6.58. The inhibition (at Adenosine receptor A2a [4]; in assay [5]) was 2% in each case. The figures for the Ratio Ki (in the assay filed under Mus musculus; in [6]) were 1.3 and 1.8, respectively.

For `CNC(=O)[C@@]12C[C@@H]1[C@@H](n1cnc3c(NCc4cc(OC)ccc4OC)nc(I)nc31)[C@H](O)[C@@H]2O`, the inhibition worked out at 35% at Adenosine receptor A2a [4] and 14% in assay [5].

On to `CCCC#Cc1nc(NCc2cccc(Cl)c2)c2ncn([C@H]3[C@H](O)[C@H](O)[C@]4(C(=O)NC)C[C@H]34)c2n1`, for which the figures for the inhibition (at Adenosine receptor A2a [4]; in assay [5]) were 80% and 42%, respectively.

On to `CNC(=O)[C@@]12C[C@@H]1[C@@H](n1cnc3c(NCc4cccc(Cl)c4)nc(C#C[Si](C)(C)C)nc31)[C@H](O)[C@@H]2O`, for which the pKi on Adenosine receptor A3 [8] was 9.01; on Adenosine receptor A1 [1] it was 6.80; on Adenosine receptor A3 [3], 8.35; on Adenosine receptor A1 [9] it was 6.80. Besides, the inhibition came out at 52% at Adenosine receptor A2a [4] and 20% in assay [5]. The Ratio Ki was found to be 35.6 in the assay listed under Mus musculus and 160 in [6].

`CNC(=O)C12C[C@@H]1[C@@H](n1cnc3c(NCc4cccc(Cl)c4)nc(I)nc31)[C@H](O)[C@@H]2O` (single isomer, unassigned): the inhibition in assay [5] was 40%. Moreover, the negative-log Ki (pKi) at Adenosine receptor A2a [7] was < 5.00.

For `CNC(=O)[C@@]12C[C@@H]1[C@@H](n1cnc3c(NCc4cccc(Cl)c4)nc(C#CCCCC(=O)OC)nc31)[C@H](O)[C@@H]2O`, the inhibition on Adenosine receptor A2a [4] worked out at 49%; in assay [5] it was 50%. Further, the values for the pKi on Adenosine receptor A1 [1], on Adenosine receptor A3 [3] and on Adenosine receptor A1 [9] were 5.87, 8.33 and 6.32, respectively.

For the molecule `CNC(=O)C12C[C@@H]1[C@@H](n1cnc3c(NC4CC4c4ccccc4)nc(Cl)nc31)[C@H](O)[C@@H]2O` (single isomer, unassigned), the pEC50 on Adenosine receptor A2b was ≤ 5.00. Besides, on Adenosine receptor A2a [2], the pKi is 4.42.

`CNC(=O)[C@@]12C[C@@H]1[C@@H](n1cnc3c(NCc4cccc(I)c4)nc(Cl)nc31)[C@H](O)[C@@H]2O`: the negative-log EC50 (pEC50) at Adenosine receptor A2b was ≤ 5.00. The pKi on Adenosine receptor A1 [1] is 8.14; on Adenosine receptor A2a [2], 5.27; at Adenosine receptor A3 [3] it was 9.10.

As to `CNC(=O)C12C[C@@H]1[C@@H](n1cnc3c(NCC(c4ccccc4)c4ccccc4)nc(Cl)nc31)[C@H](O)[C@@H]2O` (single isomer, unassigned), the figures for the Ratio Ki (in the assay listed under Mus musculus; in assay [6]) were 4.1 and 1900, respectively. Moreover, on Adenosine receptor A2b, the pEC50 is ≤ 5.00. Besides, the values for the pKi on Adenosine receptor A1 [1], on Adenosine receptor A2a [2] and at Adenosine receptor A3 [3] were 8.17, 5.74 and 8.78, respectively.

Regarding `CNC(=O)[C@@]12C[C@@H]1[C@@H](n1cnc3c(NCc4cccc(C#CCCCC(=O)O)c4)nc(Cl)nc31)[C@H](O)[C@@H]2O`, the inhibition on Adenosine receptor A2a [4] was found to be 14%; in [5], 5%.

As to `CNC(=O)[C@@]12C[C@@H]1[C@@H](n1cnc3c(NCc4cccc(Cl)c4)nc(C#CCCCC(=O)O)nc31)[C@H](O)[C@@H]2O`, the inhibition was 43% at Adenosine receptor A2a [4] and 8% in [5].

With `CNC(=O)[C@@]12C[C@@H]1[C@@H](n1cnc3c(NCc4cccc(C#CCCCC(=O)NCCN)c4)nc(Cl)nc31)[C@H](O)[C@@H]2O`, the pKi was 8.28 on Adenosine receptor A3 [8], 6.82 at Adenosine receptor A1 [1], 7.92 on Adenosine receptor A3 [3] and 6.57 on Adenosine receptor A1 [9]. In addition, the inhibition at Adenosine receptor A2a [4] amounted to 58%; in [5], 39%. For the same molecule, the values for the Ratio Ki (in the assay filed under Mus musculus; in [6]) were 13 and 52, respectively.

For the molecule `CNC(=O)[C@@]12C[C@@H]1[C@@H](n1cnc3c(NCc4cccc(Cl)c4)nc(C#CCCCC(=O)NCCN)nc31)[C@H](O)[C@@H]2O`, the pKi on Adenosine receptor A3 [8] was 8.66; at Adenosine receptor A1 [1], 6.26; on Adenosine receptor A3 [3], 8.07; on Adenosine receptor A1 [9], 6.34. The inhibition on Adenosine receptor A2a [4] amounted to 81%; in [5], 31%. The results for the Ratio Ki (in the assay listed under Mus musculus; in [6]) were 64 and 209, respectively.

Regarding `C#Cc1nc(NCc2cccc(Cl)c2)c2ncn([C@H]3[C@H](O)[C@H](O)[C@]4(C(=O)NC)C[C@H]34)c2n1`, the inhibition at Adenosine receptor A2a [4] amounted to 48%; in assay [5], 41%.
